Assay results from ChEMBL document CHEMBL1770053, “Design of novel and potent cPLA2α inhibitors containing an α-methyl-2-ketothiazole as a metabolically stable serine trap” (Bioorg Med Chem Lett, 2011).

Legend:
[1] = Inhibition of recombinant cytosolic PLA2alpha assessed as inhibition of cleavage of soluble fluorogenic substrate
[2] = Inhibition of cytosolic PLA2alpha in human differentiated HL60 cells assessed as inhibition of A23187-induced [3H]-arachidonate release; format: cell-based; conditions: HL-60
Hepatocyte = assay: Intrinsic clearance in rat hepatocytes; format: ADME, cell-based, Liver
[3] = Clearance in rat at 2 mg/kg, iv; format: ADME, organism-based; parameters: dose 2 mg/kg, route intravenous; conditions: in vivo
[4] = Volume of distribution at steady state in rat at 2 mg/kg, iv; format: ADME, organism-based; parameters: dose 2 mg/kg, route intravenous; conditions: in vivo, read-out: Vdss
[5] = Half life in rat plasma at 2 mg/kg, iv; format: ADME, organism-based; parameters: dose 2 mg/kg, route intravenous

| IC50 [1] | IC50 [2] | CL (Hepatocyte) | clearance [3] | Vd [4] | half-life [5] | SMILES |
| --- | --- | --- | --- | --- | --- | --- |
| 80 nM | 1500 nM | – | – | – | – | O=C(COc1ccc(SCCCCCc2ccccc2)cc1)COc1ccc(C(=O)O)cc1 |
| > 10000 nM | – | – | – | – | – | Cn1ccnc1C(=O)COc1ccc(SCCCCCc2ccccc2)cc1 |
| 4300 nM | 3000 nM | – | – | – | – | Cc1nc(C(=O)COc2ccc(SCCCCCc3ccccc3)cc2)sc1/C=C/C(=O)O |
| 280 nM | 1300 nM | 31 µL/min | – | – | – | Cc1nc(C(=O)COc2ccc(SCCCCCc3ccccc3)cc2)sc1CCO |
| > 10000 nM | > 10000 nM | – | – | – | – | O=C(O)COc1ccc2nc(C(=O)COc3ccc(SCCCCCc4ccccc4)cc3)[nH]c2c1 |
| 700 nM | 2000 nM | 10 µL/min | 10.5 mL/min/kg | 0.35 L/kg | 1.25 h | Cc1nc(C(=O)C(C)Oc2ccc(OCCCCCc3ccccc3)cc2)sc1CCCC(=O)O (stereo unspecified) |
| 7900 nM | – | – | – | – | – | CCC(Oc1ccc(SCc2ccc(Cl)cc2)cc1)C(=O)c1nc(C)c(CCCC(=O)O)s1 (stereo unspecified) |
| 2700 nM | 3700 nM | – | – | – | – | O=C(O)c1ccc2nc(C(=O)COc3ccc(SCCCCCc4ccccc4)cc3)[nH]c2c1 |
| 500 nM | 500 nM | – | – | – | – | Cc1nc(C(=O)COc2ccc(SCCCCCc3ccccc3)cc2)sc1CCC(=O)O |
| > 10000 nM | – | – | – | – | – | COc1ccc2nc(C(=O)COc3ccc(SCCCCCc4ccccc4)cc3)sc2c1 |
| 3000 nM | 2000 nM | – | – | – | – | Cc1nc(C(=O)COc2ccc(SCc3ccccc3)cc2)sc1CCCC(=O)O |
| 300 nM | 1100 nM | 11 µL/min | – | – | – | Cc1nc(C(=O)COc2ccc(SCCCCCc3ccccc3)cc2)sc1C(=O)O |
| 140 nM | 3600 nM | 35 µL/min | > 200 mL/min/kg | – | < 0.2 h | O=C(O)c1ccc2oc(C(=O)COc3ccc(SCCCCCc4ccccc4)cc3)nc2c1 |
| > 1000 nM | – | – | – | – | – | Cc1nc(C(=O)[C@H](C)Oc2ccc(SCCCCCc3ccccc3)cc2)sc1CCCC(=O)O |
| 1000 nM | – | – | – | – | – | O=C(COc1ccc(SCCCCCc2ccccc2)cc1)c1nc2ccccc2s1 |
| 2000 nM | 6000 nM | – | – | – | – | O=C(O)CCCc1csc(C(=O)COc2ccc(OCCCCCc3ccccc3)cc2)n1 |
| 1500 nM | 1500 nM | – | 10.5 mL/min/kg | 0.55 L/kg | 1.15 h | Cc1nc(C(=O)C(C)Oc2ccc(SCc3ccc(Cl)cc3)cc2)sc1CCCC(=O)O (stereo unspecified) |
| 3600 nM | 3200 nM | – | – | – | – | Cc1nc(C(=O)C(Oc2ccc(SCCCCCc3ccccc3)cc2)c2ccccc2)sc1CCCC(=O)O (stereo unspecified) |
| 40 nM | 230 nM | – | – | – | – | CCCCCCCCCCSc1ccc(OCC(=O)c2nc(C)c(CCCC(=O)O)s2)cc1 |
| 200 nM | – | 8 µL/min | – | – | – | Cc1nc(C(=O)[C@@H](C)Oc2ccc(SCCCCCc3ccccc3)cc2)sc1CCCC(=O)O |
| 240 nM | 1200 nM | 20 µL/min | – | – | – | Cc1nc(C(=O)COc2ccc(OCCCCCc3ccccc3)cc2)sc1CCCC(=O)O |
| 80 nM | 500 nM | – | 71 mL/min/kg | 0.4 L/kg | 0.2 h | Cc1nc(C(=O)COc2ccc(SCCCCCc3ccccc3)cc2)sc1CCCC(=O)O |
| 80 nM | 1600 nM | 28 µL/min | – | – | – | O=C(O)c1ccc2nc(C(=O)COc3ccc(SCCCCCc4ccccc4)cc3)sc2c1 |
| 300 nM | 200 nM | 41 µL/min | – | – | – | CCCCCCCCCCS(=O)(=O)c1ccc(OCC(=O)c2nc(C)c(CCCC(=O)O)s2)cc1 |
| 6700 nM | > 10000 nM | – | – | – | – | Cc1nc(C(=O)C(C)(C)Oc2ccc(SCCCCCc3ccccc3)cc2)sc1CCCC(=O)O |
| 4400 nM | 5600 nM | – | – | – | – | Cc1nc(C(=O)C(Oc2ccc(SCCCCCc3ccccc3)cc2)C(C)C)sc1CCCC(=O)O (stereo unspecified) |
| > 10000 nM | – | – | – | – | – | Cn1c(C(=O)COc2ccc(SCCCCCc3ccccc3)cc2)nc2ccccc21 |
| 200 nM | 700 nM | – | – | – | – | Cc1nc(C(=O)C(C)Oc2ccc(SCCCCCc3ccccc3)cc2)sc1CCCC(=O)O (stereo unspecified) |
| 1000 nM | > 10000 nM | – | – | – | – | O=C(COc1ccc(SCCCCCc2ccccc2)cc1)c1nccs1 |
| > 10000 nM | – | – | – | – | – | O=C(COc1ccc(SCCCCCc2ccccc2)cc1)c1ncc[nH]1 |
